Test results published in patent publication EP4813979A1, “COMPOUND FOR EGFR PROTEIN DEGRADATION AND USE THEREOF” (TYK Medicines, Inc., priority 2023, dated 2025).
pIC50: −log10 of the molar value. Like-named read-outs stand apart in the source and are kept apart here. Blank lines part the entries; values can stand above or below the compound they belong to.

Experiments:
Type in all cases: cell-based
[1] = test system: PC-9; test: Cell anti-proliferation experiment (CTG); details: Homo sapiens, PC-9 (EGFR exon 19 deletion), class symbol
Text: (§1) H1975 has an EGFR: T790M/L858R double mutation, PC-9 has an EGFR exon 19 deletion, and HCC827 has an exon 19 deletion mutation. Baf3-19del- T790M -C797S (Baf3-DTC) is a stable Ba/F3 clone expressing exogenous EGFR gene bearing T790M, C797S, and […] triple amino acid mutations, purchased from KYinno. Baf3-L858R-T790M - C797S (Baf3-LTC) is a stable Ba/F3 clone expressing exogenous EGFR gene bearing […], T790M, and C797S triple mutations, purchased from KYinno. A549 is a wild-type EGFR, purchased from Nanjing Kebai Biotechnology. A431 is a wild-type EGFR, purchased from Shanghai Xinyu Biotechnology. CellCounting-Lite2.0, Trypsin EDTA, 37°C CO2 incubator, cell counter, EnVision Serial No. 1050454.
(§2) • A) Digested logarithmic phase cells with Trypsin EDTA, added culture medium to stop the reaction, and mixing well with a pipette to prepare a cell suspension. • B) Used Vi-cell to determine cell concentration, and prepared a suspension of 15,000-25,000 cells per milliliter according to the experimental purpose and cell characteristics. • C) After prepared the cell suspension, mixed it gently and added 100 µL to each well, so that the cell density to be tested is 1500-2500 per well.
(§3) • A) Weighed approximately 2 mg the compound and calculated the required volume of DMSO according to the formula: Compound mass (mg) * Compound purity (%) / Compound molecular weight * 1000. • B) Placed the inoculated cell culture plate into an incubator and incubated for about 24 hours. Then added compounds of varying concentrations. • C) Diluted the 10mM compound stock solution to […] with culture medium, and added the […] compound solution to the second column of the deep well plate in sequence, and added […] culture medium containing 0.5% DMSO to the third to eleventh columns. • D) Gradient dilution: Taked 125 µL solution from the second column and added it to the third column, mix well; then taked 125 µL solution from the third column and added it to the fourth column, repeated this operation until the tenth column. • E) Used a multichannel pipette, aspirated 25 µL the compound from the deep-well plate and added it to a 96-well culture plate. Repeated this process three times for each compound on the 96-well plate. This will ultimately create a concentration gradient of up to 10,000 nM at a 1:4 ratio on the 96-well plate.
(§4) • A) The effects of the compound were observed under an inverted microscope after the 96-well plate was incubated in an incubator for 72 hours. • B) Added 25 µL CTG solution to each well, placed on a shaker for 10 minutes, and read the […] of each well.
(§5) Calculate the % Cell Viability using the following formula: %Cell Viability = 100% × (Lum_Sample−Lum_LC)/(Lum_HC−Lum_LC) [formula] • Lum_HC: Cell readings from the 0.1% DMSO control group • Lum_Sample: Cell readings with added compound • Lum_LC: Blank culture medium reading
(§6) The IC50 value was obtained by curve fitting using GraphPad Prism 8 software.

[2] = test system: A431; test: Cell anti-proliferation experiment (CTG); details: Homo sapiens, A431 (wild-type EGFR), class symbol
Text: as §1, §2, §3, §4, §5, §6

[3] = test system: H1975; test: Cell anti-proliferation experiment (CTG); details: Homo sapiens, H1975 (EGFR T790M/L858R), class symbol
Text: as §1, §2, §3, §4, §5, §6

[4] = test system: A549; test: Cell anti-proliferation experiment (CTG); details: Homo sapiens, A549 (wild-type EGFR), class symbol
Text: as §1, §2, §3, §4, §5, §6

[5] = test system: Baf3-19del- T790M -C797S (Baf3-DTC); test: Cell anti-proliferation experiment (CTG); details: class symbol
Text: as §1, §2, §3, §4, §5, §6

[6] = test system: HCC827; test: Cell anti-proliferation experiment (CTG); details: Homo sapiens, HCC827 (exon 19 deletion), class symbol
Text: as §1, §2, §3, §4, §5, §6

[7] = test system: Baf3-L858R-T790M - C797S (Baf3-LTC); test: Cell anti-proliferation experiment (CTG); details: class symbol
Text: as §1, §2, §3, §4, §5, §6

[8] = biological target: EGFR in Baf3-L858R-T790M-C797S (Homo sapiens, UniProt P00533, C797S/L858R/T790M); test: EGFR PROTAC HTRF experiment (total EGFR degradation)
Method: (§7) [table] Among them, B[…] -C797S (abbreviated as Baf3-DTC) is a stable Ba/F3 clone expressing exogenous EGFR gene bearing T790M, C797S and […] triple amino acid mutations, purchased from KYinno; Baf3-L858R-T790M - C797S (abbreviated as Baf3-LTC) is a stable Ba/F3 clone expressing exogenous EGFR gene bearing […], T790M, C797S triple mutations, purchased from KYinno. [table] [table] Dilutded Eu and d2 antibodies 2μl per well with detection buffer 20-fold. Then mixed the two antibody vials thoroughly. [table] Opened EnVision , locate the HTRF program, configured the board, and then read […]. The fitted curve, DC50 and Dmax of this compound could be generated using GraphPad Prism .

[9] = biological target: EGFR in Baf3-19del-T790M-C797S (Homo sapiens, UniProt P00533, C797S/DEL746-750/T790M); test: as above
Method: as §7

[10] = Baf3-LTC, incubated 16 hours, HTRF total EGFR; read-out: Baf3-LTC DC50
[11] = Baf3-LTC, incubated 16 hours, HTRF total EGFR; read-out: Baf3-LTC Dmax
[12] = Baf3-DTC, incubated 16 hours, HTRF total EGFR; read-out: Baf3-DTC DC50
[13] = Baf3-DTC, incubated 16 hours, HTRF total EGFR; read-out: Baf3-DTC Dmax

EGFR in Baf3-19del-T790M-C797S, sequence (P00533 with tags, fused parts or gaps DEL746-750/T790M/C797S): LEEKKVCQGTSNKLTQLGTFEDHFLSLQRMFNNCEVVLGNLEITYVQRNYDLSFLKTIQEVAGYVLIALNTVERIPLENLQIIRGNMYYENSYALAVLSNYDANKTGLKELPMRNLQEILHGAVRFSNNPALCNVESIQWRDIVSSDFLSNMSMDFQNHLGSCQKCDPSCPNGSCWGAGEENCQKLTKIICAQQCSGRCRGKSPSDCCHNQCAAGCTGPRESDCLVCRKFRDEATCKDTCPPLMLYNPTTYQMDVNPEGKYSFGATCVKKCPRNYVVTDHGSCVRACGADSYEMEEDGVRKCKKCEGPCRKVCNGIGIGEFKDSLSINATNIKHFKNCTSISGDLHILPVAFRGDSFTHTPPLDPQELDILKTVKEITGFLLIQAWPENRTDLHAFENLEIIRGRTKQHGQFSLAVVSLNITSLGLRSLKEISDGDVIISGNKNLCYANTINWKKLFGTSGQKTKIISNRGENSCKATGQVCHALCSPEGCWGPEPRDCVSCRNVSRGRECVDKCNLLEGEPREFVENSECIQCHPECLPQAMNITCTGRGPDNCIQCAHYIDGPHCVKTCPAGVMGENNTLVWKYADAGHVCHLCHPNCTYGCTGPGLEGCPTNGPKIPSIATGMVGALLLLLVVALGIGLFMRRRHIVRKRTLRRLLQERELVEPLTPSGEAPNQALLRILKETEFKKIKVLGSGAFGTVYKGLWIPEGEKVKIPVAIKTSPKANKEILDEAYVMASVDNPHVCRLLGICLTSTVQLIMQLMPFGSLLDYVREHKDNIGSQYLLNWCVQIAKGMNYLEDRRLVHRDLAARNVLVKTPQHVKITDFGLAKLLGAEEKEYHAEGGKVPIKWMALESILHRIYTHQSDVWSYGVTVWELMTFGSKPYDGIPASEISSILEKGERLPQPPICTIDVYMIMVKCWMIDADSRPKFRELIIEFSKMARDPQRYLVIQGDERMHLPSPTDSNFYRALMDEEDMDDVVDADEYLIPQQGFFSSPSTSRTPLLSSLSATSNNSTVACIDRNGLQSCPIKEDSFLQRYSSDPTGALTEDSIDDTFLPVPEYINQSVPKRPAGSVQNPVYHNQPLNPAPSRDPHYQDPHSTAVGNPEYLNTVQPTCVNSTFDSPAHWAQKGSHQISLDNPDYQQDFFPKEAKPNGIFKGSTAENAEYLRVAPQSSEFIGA
EGFR in Baf3-L858R-T790M-C797S, sequence (P00533 25-1210 T790M/C797S/L858R): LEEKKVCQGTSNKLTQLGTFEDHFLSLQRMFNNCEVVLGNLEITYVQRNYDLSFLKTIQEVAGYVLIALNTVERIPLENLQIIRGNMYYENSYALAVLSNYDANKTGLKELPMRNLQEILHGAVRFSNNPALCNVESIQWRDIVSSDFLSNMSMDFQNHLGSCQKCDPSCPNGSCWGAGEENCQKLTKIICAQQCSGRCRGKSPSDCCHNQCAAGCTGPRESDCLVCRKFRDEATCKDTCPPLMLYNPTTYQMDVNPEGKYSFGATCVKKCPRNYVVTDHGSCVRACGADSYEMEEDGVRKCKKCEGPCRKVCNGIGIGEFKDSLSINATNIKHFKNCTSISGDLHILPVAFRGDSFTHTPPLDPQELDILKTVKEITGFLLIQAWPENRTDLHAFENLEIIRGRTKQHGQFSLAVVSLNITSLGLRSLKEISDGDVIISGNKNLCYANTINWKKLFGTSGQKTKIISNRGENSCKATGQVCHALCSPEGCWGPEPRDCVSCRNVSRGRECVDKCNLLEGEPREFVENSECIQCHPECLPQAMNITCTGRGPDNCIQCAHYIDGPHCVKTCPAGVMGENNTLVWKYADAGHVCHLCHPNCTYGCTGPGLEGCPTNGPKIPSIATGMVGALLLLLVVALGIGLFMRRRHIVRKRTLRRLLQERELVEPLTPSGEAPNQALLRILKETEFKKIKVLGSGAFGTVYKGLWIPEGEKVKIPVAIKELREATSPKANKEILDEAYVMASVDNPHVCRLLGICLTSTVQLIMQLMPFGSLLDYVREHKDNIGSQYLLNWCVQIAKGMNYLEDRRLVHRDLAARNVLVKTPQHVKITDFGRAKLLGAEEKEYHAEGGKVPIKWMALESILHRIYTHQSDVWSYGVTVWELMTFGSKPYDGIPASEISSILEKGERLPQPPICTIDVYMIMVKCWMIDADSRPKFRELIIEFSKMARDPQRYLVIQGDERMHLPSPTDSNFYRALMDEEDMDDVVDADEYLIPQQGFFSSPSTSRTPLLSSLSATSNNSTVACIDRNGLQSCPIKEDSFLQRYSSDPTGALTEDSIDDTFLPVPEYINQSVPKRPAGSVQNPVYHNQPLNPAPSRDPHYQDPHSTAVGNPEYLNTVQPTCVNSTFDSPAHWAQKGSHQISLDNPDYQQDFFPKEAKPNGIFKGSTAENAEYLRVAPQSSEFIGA

pIC50 ([1]; PC-9, 72 h): < 6.00
pIC50 ([2]; A-431, 72 h): < 6.00
pIC50 ([3]; NCI-H1975, 72 h): 7.00 to 8.00
pIC50 ([4]; A549, 72 h): < 6.00
pIC50 ([5]; 72 h): > 8.00
pIC50 ([6]; HCC827, 72 h): < 6.00
pIC50 ([7]; 72 h): 7.00 to 8.00
DC50 [8, 10]: < 10 nM
Dmax [8, 11]: 70 to 100%
DC50 [9, 12]: < 10 nM
Dmax [9, 13]: 70 to 100%
SMILES: CCc1cc(Nc2ncc(Cl)c(Nc3ccccc3N(C)S(C)(=O)=O)n2)c(OC)cc1N1CCN(C(=O)CN2CCC(c3cc4c(cc3F)c(N3CCC(=O)NC3=O)nn4C)C(F)(F)C2)CC1 (stereo not drawn) [TA-013]

DC50 [8, 10]: 100 to 1000 nM
Dmax [8, 11]: 70 to 100%
DC50 [9, 12]: 100 to 1000 nM
Dmax [9, 13]: 70 to 100%
SMILES: CCc1cc(Nc2ncc(Cl)c(Nc3ccc(OC)cc3C(C)=O)n2)c(OC)cc1N1CCN(C(=O)CN2CCC(c3cc4c(cc3F)c(N3CCC(=O)NC3=O)nn4C)C(F)(F)C2)CC1 (stereo not drawn) [TA-017]

SMILES: CCc1ccc(Nc2nc(Nc3cc(CC)c(N4CCN(C(=O)CN5CCC(c6cc7c(cc6F)c(N6CCC(=O)NC6=O)nn7C)C(F)(F)C5)CC4)cc3OC)ncc2Cl)c(P(C)(C)=O)c1 (stereo not drawn) [TA-035]
DC50 [8, 10]: 10 to 100 nM
Dmax ([8]; read-out: Baf3-LTC Dmax): 70 to 100%
DC50 [9, 12]: 10 to 100 nM
Dmax ([9]; read-out: Baf3-DTC Dmax): 70 to 100%

SMILES: CCc1cc(Nc2ncc(Br)c(Nc3ccccc3P(C)(C)=O)n2)c(OC)cc1N1CC2(CCN(C(=O)CN3CCC(c4cc5c(cc4F)c(N4CCC(=O)NC4=O)nn5C)C(F)(F)C3)CC2)C1 (stereo not drawn) [TC-164]
pIC50 ([1]; 72 hours): 6.00 to 7.00
pIC50 ([2]; A-431, 72 hours): < 6.00
pIC50 ([3]; NCI-H1975, 72 hours): > 8.00
pIC50 ([4]; 72 hours): < 6.00
pIC50 ([5]; 72 hours): > 8.00
pIC50 ([6]; 72 hours): 7.00 to 8.00
pIC50 ([7]; 72 hours): > 8.00
DC50 ([8]; read-out: Baf3-LTC DC50; Baf3-LTC, incubated 16 hours, HTRF total EGFR): < 10 nM
Dmax ([8]; read-out: Baf3-LTC Dmax): 70 to 100%
DC50 ([9]; read-out: Baf3-DTC DC50; Baf3-DTC, incubated 16 hours, HTRF total EGFR): < 10 nM
Dmax ([9]; read-out: Baf3-DTC Dmax): 70 to 100%
